Read-outs that look alike come from different tables or passages of the source.
Biological target: T1, BCL6 (Homo sapiens, UniProt P41182)
T1 construct: endogenous in cells; host or cells: T47D breast cancer epithelial cells
Assay: Immunofluorescence protocol for high content imaging of BCL6 (degradation) in T47D cells, 3 days compound treatment
Format: cell-based
Details: for DC50: read-out: Mean DC50 (nM)* category; for Dmax: read-out: Mean Dmax (%)** category
Procedure, shortened: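 High content immunofluorescence imaging (10×, 4 fields/well) of BCL6 using rabbit primary antibody, Alexa-488 secondary, cell mask and Hoechst nuclear stain after PFA fixation. Before staining, T47D cells (7K/well) were exposed for 3 days at 37° C to 3-fold serial dilutions of compound, top final concentration 0.1 or 1 μM.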

[1] = T47D cells, 3 days compound treatment

SMILES	DC50 [1] [nM]	Dmax [1] [%]	Dmax (T47D) [%]	DC50 [nM]
CNC(=O)COc1cc2cc(Nc3nc(N4CCC(CN5CCC6(CC5)CN(c5ccc7c(c5)C(=O)N(C5CCC(=O)NC5=O)C7=O)C6(C)C)CC4)ncc3Cl)ccc2n(C(C)C)c1=O (centres unmarked) [Compound 133, 2-{[6-({5-chloro-2-[4-({2-[2-(2,6-dioxopiperidin-3-yl)-1,3-dioxo-2,3-dihydro-1H-isoindol-5-yl]-1,1-dimethyl-2,7-diazaspiro[3.5]nonan-7-yl}methyl)piperidin-1-yl]pyrimidin-4-yl}amino)-2-oxo-1-(propan-2-yl)-1,2-dihydroquinolin-3-yl]oxy}-N-methylacetamide]	< 10	50 to 70		
CNC(=O)COc1cc2cc(Nc3nc(N4CCC(O[C@H]5C[C@H](N6CCC(c7ccc8c(c7F)CN(C7CCC(=O)NC7=O)C8=O)CC6)C5)CC4)ncc3Cl)ccc2n(C(C)C)c1=O (some centres unmarked) [Compound 81, 2-({6-[(5-chloro-2-{4-[(1r,3r)-3-{4-[2-(2,6-dioxopiperidin-3-yl)-4-fluoro-1-oxo-2,3-dihydro-1H-isoindol-5-yl]piperidin-1-yl}cyclobutoxy]piperidin-1-yl}pyrimidin-4-yl)amino]-2-oxo-1-(propan-2-yl)-1,2-dihydroquinolin-3-yl}oxy)-N-methylacetamide]	< 10	50 to 70		
CNC(=O)COc1cc2cc(Nc3nc(N4CCC(O[C@H]5C[C@H](N6[C@@H](C)CN(c7ccc8c(c7)C(=O)N(C7CCC(=O)NC7=O)C8=O)C[C@@H]6C)C5)CC4)ncc3Cl)ccc2n(C(C)C)c1=O (stereo partly drawn) [Compound 253, 2-({6-[(5-chloro-2-{4-[(1r,3r)-3-[(2S,6S)-4-[2-(2,6-dioxopiperidin-3-yl)-1,3-dioxo-2,3-dihydro-1H-isoindol-5-yl]-2,6-dimethylpiperazin-1-yl]cyclobutoxy]piperidin-1-yl}pyrimidin-4-yl)amino]-2-oxo-1-(propan-2-yl)-1,2-dihydroquinolin-3-yl}oxy)-N-methylacetamide]			≥ 70	10 to 50
CNC(=O)COc1cc2cc(Nc3nc(N4CCC(O[C@H]5C[C@H](N6CC7(CCN7c7cccc8c7C(=O)N(C7CCC(=O)NC7=O)C8)C6)C5)CC4)ncc3Cl)ccc2n(C(C)C)c1=O (some centres unmarked) [Compound 310, 2-({6-[(5-chloro-2-{4-[(1r,3r)-3-{1-[2-(2,6-dioxopiperidin-3-yl)-3-oxo-2,3-dihydro-1H-isoindol-4-yl]-1,6-diazaspiro[3.3]heptan-6-yl}cyclobutoxy]piperidin-1-yl}pyrimidin-4-yl)amino]-2-oxo-1-(propan-2-yl)-1,2-dihydroquinolin-3-yl}oxy)-N-methylacetamide]			50 to 70	< 10
CNC(=O)COc1cc2cc(Nc3nc(N4CCN(CC5CCC6(CC5)CN(c5ccc7c(c5F)CN(C5CCC(=O)NC5=O)C7=O)C6)CC4)ncc3Cl)ccc2n(C(C)C)c1=O (centres unmarked) [Compound 307, 2-{[6-({5-chloro-2-[4-({2-[2-(2,6-dioxopiperidin-3-yl)-4-fluoro-1-oxo-2,3-dihydro-1H-isoindol-5-yl]-2-azaspiro[3.5]nonan-7-yl}methyl)piperazin-1-yl]pyrimidin-4-yl}amino)-2-oxo-1-(propan-2-yl)-1,2-dihydroquinolin-3-yl]oxy}-N-methylacetamide]			50 to 70	< 10
CNC(=O)COc1cc2cc(Nc3cc(N4CCC(CN5CCC6(CC5)CN(c5ccc7c(c5OC)CN(C5CCC(=O)NC5=O)C7=O)C6(C)C)CC4)ncc3Cl)ccc2n(C(C)C)c1=O (centres unmarked) [Compound 230, 2-{[6-({5-chloro-2-[4-({2-[2-(2,6-dioxopiperidin-3-yl)-4-methoxy-1-oxo-2,3-dihydro-1H-isoindol-5-yl]-1,1-dimethyl-2,7-diazaspiro[3.5]nonan-7-yl}methyl)piperidin-1-yl]pyridin-4-yl}amino)-2-oxo-1-(propan-2-yl)-1,2-dihydroquinolin-3-yl]oxy}-N-methylacetamide]				< 10

Reference: patent US11986532B2 (Arvinas Operations, Inc., priority 2021, dated 2024)
